The values below are quoted from earlier work in patent publication US20080096926A1, “Treatment Of Cognitive Impairment Using A Selective Dopamine D1 Receptor Agonist” (DrugAbuse Sciences SAS, priority 2002, published 2008).

Where a name gives a salt, the structure may show the parent alone.

The test system of data set [1] is young control monkeys and aged monkeys.
The test system of a further data set is MPTP treated monkeys. The settings on record: for anti-parkinsonian activity: MPTP treated monkeys.
Data set [2] has as its system non-human primate model of cognitive impairment.
Another data set concerns monkeys. To be noted: 0.1, 0.3 and 1 mg/kg/day IM.
The next data set deals with healthy volunteers. The settings on record: 0.1 mg, 32 healthy volunteers.
Data set [3] concerns prefrontal cortex of rhesus monkeys. The settings on record: local injections into the prefrontal cortex of rhesus monkeys.

Turning to `Oc1cc2c(cc1O)[C@H]1c3ccccc3CN[C@@H]1CC2` (racemic) [dihydrexidine], in data set [1], the “memory performance in monkeys following administration of D1 agonists” value is “Improved memory performance”. In addition, the memory performance result in data set [1] (young control monkeys and aged monkeys) is listed as “improves memory performance”. Also, the anti-parkinsonian activity entry in the data set with MPTP treated monkeys was “attenuates these parkinsonian signs while increasing eye blink rate”.
For the compound `CCCc1cc2c(s1)CN[C@@H]1CCc3cc(OC(C)=O)c(OC(C)=O)cc3[C@@H]21` [DAS-431, (−)-trans 9,10-diacetyloxy-2-propyl-4,5,5a,6,7,11b-hexahydro-3-thia-5-azacyclopent-1-ena[c] phenanthrene hydrochloride], the “reversal of haloperidol-induced working memory impairment” value in data set [2] (0.01 μg/kg to 0.1 μg/kg IM, five blocks of five consecutive days) was “reverse the haloperidol effects”. Moreover, the “persistence of treatment effect after the final treatment” value in data set [2] (in some monkeys) is given as “more than a year”. Also, the tolerance result with monkeys is listed as “tolerance may have developed after 3 days of treatment”. Moreover, the “effect following repeated administration” value in the data set with MPTP-lesioned macaques (other studies (Michaelides et al. 1995)) is “potent effect is maintained”. The efficacy over time result with MPTP-lesioned macaques (three-time daily 0.32 mg/kg s.c. for thirty days) is listed as “no difference over time”. The “antiparkinsonian activity (reported for D1 agonists)” value in the data set on MPTP treated monkeys (model not stated) is “antiparkinsonian activity”. For the same compound, the “dose relationship of adverse events” value (1 mg to 40 mg IV per day) is “no clear dose relationship with the exception of nausea and vomiting in the cocaine abuser population and of dizziness in all subjects”. For the same compound, the “tolerance to side effects” value (Parkinson's disease population) was “rapid tolerance to nausea and vomiting”. Besides, where the note is “in vivo”, the EKG result was “Transitory EKG changes” and the “severity of adverse events” value is “mild or moderate”. For the setting “previous treatment protocols”, the adverse events result was “high incidence of dopamine related symptoms such as nausea, vomiting, hypotension, postural hypotension, dizziness, injection and application site reactions”.
`CN1CCN(C2=Nc3cc(Cl)ccc3Nc3ccccc32)CC1` [clozapine]: the severe side effects entry in the data set with schizophrenia (in vivo) was “agranulocytosis”.
In the case of `Cc1nc2n(c(=O)c1CCN1CCC(c3noc4cc(F)ccc34)CC1)CCCC2` [Risperidone, risperidone], in the data set with schizophrenia (schizophrenia), the executive functioning entry was “positive effects”; the “verbal learning and memory” value is on record as “inconsistent results”; the working memory entry was “positive effects”.
In the case of `CCCN1C[C@H](CSC)C[C@@H]2c3cccc4[nH]cc(c34)C[C@H]21` [pergolide], the “effect on spatial memory” value in the data set with healthy volunteers is “positive effect”.
Take `CN1CCc2cc(Cl)c(O)cc2[C@H]2c3ccccc3CC[C@@H]21` [SCH39166]: the “performance on working memory tasks” value in data set [3] was “induce errors and increase latency of performance”.
Turning to `C=CCN1CCc2c(cc(O)c(O)c2Cl)C(c2ccccc2)C1` (stereo not drawn) [SKF 82958], in the data set with MPTP treated monkeys, the anti-parkinsonian activity result was “increase locomotor activity and improve parkinsonian score”.
Turning to `Oc1cc2c(cc1O)C(c1ccccc1)CNCC2` (stereo not drawn) [SKF 38393], the “memory performance in monkeys following administration of D1 agonists” value in [1] was “Improved memory performance”. In addition, in the data set with MPTP treated monkeys, the anti-parkinsonian activity result was “without anti-parkinsonian activity”. The food intake entry in the data set on rats is “decrease food intake”.
